# Measured values published in patent publication US11718610B2, “Compounds containing benzosultam” (MEDSHINE DISCOVERY INC., priority 2020, dated 2023).
# Where two headings read alike, the source gives them in different places.
# Columns and labels:
# Calu-6 cells = assay: Calu-6 (Kras Q61K) antiproliferative activity experiment (CellTiterGlo); assay type: cell-based, human; conditions: cultured three days
# Experimental: Experimental Embodiment 1: Calu-6 (Kras^Q61K) Antiproliferative Activity Experiment
# (1) cell culture medium: 88% RPMI-1640, 10% fetal bovine serum, 1% L-glutamine and 1% penicillin-streptomycin;
# (2) culture medium, trypsin and DPBS were preheated in a 37° C. water bath;
# (3) the original culture medium was removed in the cell culture flask and washed once with 6 mL of PBS;
# (4) 3.5 mL of trypsin was added to the cell culture flask, and the cell culture flask was shaken gently, and the trypsin was removed after full contact with the cell, and then the culture flask was placed into a 37° C. incubator containing 5% CO2 for about 1 minute;
# (5) the cells were resuspended with 10 mL of cell culture medium, and about 0.6 mL of cell suspension (ViCell XR) was taken out for counting;
# (6) the cell suspension was diluted with culture medium to a cell density required for plating of 2.5×10^4 cells per mL;
# (7) 100 μL of PBS was added to each well around the cell plate, and 40 μL of cell suspension was added to the other wells, and placed in a 37° C. incubator containing 5% CO2 for overnight culture.
# (8) The required cell amount and culture medium were taken based on the new T75 culture flask for continued culture.
# (1) the compound to be tested was prepared into […] solution with DMSO;
# (2) 9 μL of the compound was taken and added to Echo shallow well plate (Labcyte, #LP-0200), and the shallow well plate was centrifuged at 1000 rpm for 10 seconds;
# (3) DPBS at the periphery of the cell plate was sucked out;
# (4) the compound was gradient diluted and administrated with Echo, and 10 concentration gradients of each compound were diluted, and 100 nL of the diluent was added to the 384 cell plate separately, and then the cell plate was put back to the incubator and cultured for three days;
# (5) then 100 μL of DPBS was added to the periphery of the cell plate.
# (1) CTG was added and the plate was read: 20 μL of CellTiterGlo was added to each well of the cell plate, and the cell plate was shaken in the dark for 10 min. and the plate was read on Envision.
# A375 cells = assay: A375 (BRAF V600E) antiproliferative activity experiment (CellTiter-glo); assay type: cell-based; conditions: Homo sapiens, A-375, 120 h, cultured 5 days
# Experimental: Experimental Embodiment 3: A375 (BRAF^V600E) Antiproliferative Activity Experiment
# Cell line A375 (purchased from Procell). DMEM culture medium, penicillin/streptomycin antibiotics were purchased from Vicente, and fetal bovine serum was purchased from Biosera. CellTiter-glo (cell viability chemiluminescence detection reagent) reagent was purchased from Promega.
# A375 cells were seeded in a white 96 well plate with […] of cell suspension per well containing 2000 of A375 cells. The cell plate was placed in a carbon dioxide incubator and cultured overnight. The compound to be tested was diluted 3-fold to the 9th concentration with a pipette, that is, diluted from 6 mmol to 0.91 μmol, and a double-duplicate experiment was set-up, 78 μmol of culture medium was added to the middle plate, then 2 μmol of gradient dilution compound per well was transferred to the middle plate according to the corresponding position, and 20 μmol per well was mixed and transferred to the cell plate. The concentration of the compound transferred to the cell plate ranged from 30 μmol to 4.57 nmol. The cell plate was placed in a carbon dioxide incubator and cultured for 5 days. Another cell plate was prepared, and the signal value was read as the maximum value (max value in the following equation) on the day of administration to participate in data analysis, 25 μmol of cell viability chemiluminescence detection reagent was added to each well of the cell plate and incubated at room temperature for 10 minutes to stabilize the luminescence signal. A multi-marker analyzer reading was used. After the incubation of the cell plate added with the compound was finished, 25 μmol of cell viability chemiluminescence detection reagent was added to each well of the cell plate and incubated at room temperature for 10 minutes to stabilize the luminescence signal. A multi-marker analyzer reading was used.
# The equation (Sample−Min)/(Max−Min)*100% was used to convert the original data into inhibition rate, and the IC50 value could be obtained by curve fitting with four parameters (obtained by “log (inhibitor) vs. response—variable slope” mode in GraphPad Prism).
# [1] = tested on: ERK phosphorylation in Calu-6 cells; assay: Calu-6 (Kras Q61K) ERK phosphorylation inhibition experiment (HTRF); assay type: cell-based, human; conditions: Homo sapiens, Calu-6, 1 h, 1 hour incubation with compound
# Experimental: Experimental Embodiment 5: Calu-6 (Kras^Q61K) ERK Phosphorylation Inhibition Experiment
# 1) the cells were resuscitated and cultured to logarithmic growth phase, digested with trypsin, seeded in 96-well plates with 30000 cells per well, and incubated overnight in an incubator.
# 2) 1 μL of gradient compound dissolved with DMSO was added to a 96-well plate and placed back into an incubator to incubate for 1 hour.
# 3) The cell plates were removed out, and the culture medium was poured off, and 50 μL of cell lysate (with 1% blocking peptide) was added to each well.
# 4) The lysate plate was mixed at 500 rpm and incubated and lysed at room temperature for 30 minutes.
# 5) The antibody mixture in the kit was prepared at a ratio of 1:1:38.
# 6) 16 μL of cell lysate was transferred to the HTRF plate per well, then the 4 μL of the configured antibody mixture was added thereto.
# 7) After incubation overnight, the plate was read with Envision, and the fitted curve was obtained according to the ratio (the ratio of fluorescence intensity of […]) and the EC50 was calculated according to the four-parameter fitting formula Y=Bottom+(Top−Bottom)/(1+10^((Log EC50−X)*HillSlope)) of Graphpad.
# [2] = Pharmacokinetics of single intravenous and oral administration in mice; assay type: in vivo; conditions: for Cmax / Tmax: 50 mg/kg/day, single oral administration; for Cmax: read-out: Maximum plasma drug concentration Cmax; for Vd / clearance / half-life: single intravenous administration, 0.5 mg/kg/day; for Vd: read-out: Apparent distribution volume Vdss; for clearance: read-out: Clearance rate Cl; for half-life: read-out: Half-life (T1/2) (converted); for Tmax: read-out: Peak time Tmax
# Experimental: (§1) Experimental Embodiment 6: Pharmacokinetics Study of Single Intravenous and Oral Administration in Mice and Dogs
# (§2) This experiment was aimed to study the pharmacokinetics of the test compound in mice and dogs in vivo after a single oral administration of the compound.
# (§3) After intravenous or oral administration, blood samples were collected and the actual blood collection time was recorded. After the blood sample was collected, the sample was immediately transferred to a labeled centrifuge tube containing K2-EDTA, and then the plasma was taken after centrifugation. The plasma was transferred to a precooled centrifuge tube, quickly frozen in dry ice, and stored in an ultra-low temperature refrigerator at −70±10° C. until LC-MS/MS analysis.
# (§4) Pharmacokinetic software was used to process the plasma drug concentration data of the compound with […] model. The peak concentration (Cmax) and peak time (Tmax), as well as the end time of quantification, were obtained directly from the plasma drug concentration-time graph. The following pharmacokinetic parameters were calculated by logarithmic linear trapezoidal method: half-life (T1/2), apparent distribution volume (Vdss) and clearance rate (Cl), and the area under the time-plasma concentration curve from 0 to the end time point (AUC0-last).
# [3] = Pharmacokinetics of single intravenous and oral administration in dogs; assay type: in vivo; conditions: dog
# Experimental: as §1, §2, §3, §4
"IC50 (Calu-6 cells; Homo sapiens, Calu-6, 72 h)",IC50 (A375 cells),IC50 [1],"Cmax ([2]; mouse, plasma, po)","Vd ([2]; mouse, plasma)","clearance ([2]; mouse, plasma)","half-life ([2]; mouse, plasma)","Tmax ([2]; mouse, plasma)","Apparent distribution volume ([3]; intravenous injection, 2 mg/kg/day)","Maximum plasma drug concentration ([3]; oral, 10 mg/kg/day)","Peak time ([3]; oral, 10 mg/kg/day)","clearance ([3]; plasma, intravenous injection, 2 mg/kg/day, read-out: Clearance rate)","half-life ([3]; plasma, intravenous injection, 2 mg/kg/day, read-out: Half-life (T1/2) (converted))","bioavailability ([3]; plasma, oral 10 mg/kg/day vs intravenous 2 mg/kg/day)",IC50 (Calu-6 cells),Cmax [2],Structure (SMILES)
222 nM,14 nM,3.99 nM,124 µM,0.297 L/kg,7.03 mL/min/kg,1.26 h,1.5 h,–,–,–,–,–,–,–,–,[2H]C1([2H])CC(Nc2ncc(Cl)c(-c3ccc4c(c3)S(=O)(=O)N([C@H](C)C(=O)N[C@H](CO)c3cc(F)cc(OC)c3)C4)n2)CC([2H])([2H])O1 [Compound 9]
–,16 nM,6.51 nM,157 µM,0.422 L/kg,13.8 mL/min/kg,1.17 h,0.75 h,–,–,–,–,–,–,–,–,COc1cc(F)cc([C@@H](CO)NC(=O)[C@@H](C)N2Cc3ccc(-c4nc(N[C@H]5CCOC[C@H]5F)ncc4Cl)cc3S2(=O)=O)c1 [Compound 11]
300 nM,13 nM,3.98 nM,156 µM,0.656 L/kg,19 mL/min/kg,2.18 h,1 h,0.112 L/kg,26700 nmol/L,3.00 h,1.34 mL/min/kg,4.3 h,59.8%,–,–,COc1cc(F)cc([C@@H](CO)NC(=O)[C@@H](C)N2Cc3ccc(-c4nc(NC5CCOCC5)ncc4Br)cc3S2(=O)=O)c1 [Compound 3]
–,15 nM,5.88 nM,–,0.4 L/kg,10.3 mL/min/kg,1.16 h,1 h,–,–,–,–,–,–,88.5 nM,73.4 µM,COc1cc(F)cc([C@@H](CO)NC(=O)[C@@H](C)N2Cc3ccc(-c4nc(NC5CCOCC5)ncc4Cl)cc3S2(=O)=O)c1 [Compound 1]
